Target: T1, Lsr2Msm (Mycolicibacterium smegmatis, UniProt A0R576)
T1 construct: gene MSMEG_6092; recombinant, E. coli BL21 (DE3), modified pET28a, C-terminal His-tag, Ni-NTA purified
Test: isothermal titration calorimetry
Format: binding

Nc1nc2c(ncn2[C@@H]2O[C@@H]3CO[P@](=O)(O)O[C@H]4[C@@H](O)[C@H](n5cnc6c(=O)[nH]c(N)nc65)O[C@@H]4CO[P@](=O)(O)O[C@H]3[C@H]2O)c(=O)[nH]1 [c-di-GMP]
Kd: 96.4 nM

Source: publication PMC10808224, “Lsr2 acts as a cyclic di-GMP receptor that promotes keto-mycolic acid synthesis and biofilm formation in mycobacteria” (Nature Communications, 2024)
